According to article PMC11285977, “Identification of drug-like molecules targeting the ATPase activity of dynamin-like EHD4” (PLOS ONE, 2024):
Read-outs that look alike come from different tables or passages of the source.

Assays:
[1] = molecular target: T1, EHD4^ΔN (Mus musculus, UniProt Q9EQP2); assay: Malachite green (MLG)-based liposome-stimulated ATPase assay of EHD4ΔN; type: biochemical; conditions: read-out: IC50, EHD4ΔN ATPase inhibition
T1 construct: mouse EHD4 (Uniprot Q1MWP8, residues 22–541, EHD4^ΔN); His6 followed by PreScission cleavage site (N, cleaved yes); made in house; host or cells: E. coli BL21 DE3 Rosetta
T1 sequence (Q9EQP2 22-541): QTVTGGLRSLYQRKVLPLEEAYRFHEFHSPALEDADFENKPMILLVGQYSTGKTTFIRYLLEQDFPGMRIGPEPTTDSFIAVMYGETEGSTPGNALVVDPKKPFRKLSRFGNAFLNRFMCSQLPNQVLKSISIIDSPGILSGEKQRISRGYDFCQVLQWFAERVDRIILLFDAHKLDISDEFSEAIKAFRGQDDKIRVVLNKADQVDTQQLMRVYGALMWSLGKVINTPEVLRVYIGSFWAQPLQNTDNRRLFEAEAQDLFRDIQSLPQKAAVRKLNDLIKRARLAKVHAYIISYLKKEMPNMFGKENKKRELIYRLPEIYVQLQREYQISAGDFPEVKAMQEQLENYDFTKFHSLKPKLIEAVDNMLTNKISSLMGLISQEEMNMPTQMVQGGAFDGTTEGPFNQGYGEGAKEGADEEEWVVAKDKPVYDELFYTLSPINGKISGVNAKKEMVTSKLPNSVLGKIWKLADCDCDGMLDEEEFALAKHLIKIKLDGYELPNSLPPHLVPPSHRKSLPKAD
Description: ATPase assays were performed in a 384 well plate at 25°C (if not otherwise indicated). The assay buffer contained 20 mM HEPES, 150 mM KCl, 0.5 mM MgCl2, pH 7.5. 30 μM of ATP was mixed with 50 μg/ml DOPS in assay buffer. Reaction was started by adding 200 nM EHD4^ΔN. At any given time-point, 25 μl of the reaction was taken out and mixed with 75 μl of the dye in a 384 well plate. The reaction gets quenched by the addition of the dye which denatures the protein. Absorbance at 650 nm was measured in a plate reader (Tecan, Infinite M200).
Screening was conducted at the Screening Unit of the Leibniz-Forschungsinstitut für Molekulare Pharmakologie (FMP) using a kinase drug library and the ‘diversity set’. 15,840 compounds were tested as singlets in 384 well plate format. A master mix (MM) was prepared in the assay buffer to have a final ATP concentration of 30 μM and DOPS concentration of 50 μg/ml. A 10 mM DMSO solution of the compounds was serially diluted, first with DMSO and then with the MM to a final concentration of 10 μM (1% of DMSO), using the Tecan-Evo workstation (pipetting robot). EHD4^ΔN (200 nM) was pipetted using multi-drop dispensing cassette. To have homogenous enzymatic activity, the plates were vortexed using a microplate mixer at 2,000 rpm for 10 s. The plates were incubated for 15 min at room temperature and 75 μl of MLG dye added with the cassette. The plates were measured in a Perkin Elmer Envision plate reader.
Data were analyzed with an automated pipeline using KNIME software. For the individual plates, the corresponding Z´ values and SNR were calculated. Compared to the control´s absorbance at 650 nm (Abs650), compounds were classified as inhibitors if the %Abs650 was ≤ 25%. These hits were picked from the drug library and used for further validation of IC50 determination and counter screening. IC50 values were determined in the same setup with varying inhibitor concentrations from 0.125 μM to 50 μM.

[2] = molecular target: T1, EHD4^ΔN; assay: Thermal shift assay (TSA); type: binding; conditions: 5 μM EHD4ΔN, 50 μM inhibitor
Description: TSA was done in a CFX96 touch-real time PCR using a fluorescent dye from ThermoFisher Scientific (catalogue number 4461146). Reactions (5 μM EHD4^ΔN, 50 μM inhibitor and 1X dye) were prepared on ice, to a final volume of 50 μl and transferred to a 96 well PCR plate and then sealed with a plastic film. CFX96 was precooled to 4°C and the PCR plate was inserted. The fluorescence was measured from 4°C to 80°C with 0.5°C temperature steps. Protein melting temperature was calculated with the provided software (Bio-Rad) and plotted as bar diagram using GraphPad Prism 7.05.

[3] = molecular target: T2, EHD2 (Mus musculus, UniProt Q8BH64); assay: HPLC-based EHD2 ATPase assay; type: biochemical; conditions: 5 μM EHD2, 500 μg/ml Folch liposomes, 50 μM ATP, 30°C
T2 construct: Mouse EHD2 (Uniprot Q8BH64, residues 1–543); made in house
T2 sequence (Q8BH64 1-543): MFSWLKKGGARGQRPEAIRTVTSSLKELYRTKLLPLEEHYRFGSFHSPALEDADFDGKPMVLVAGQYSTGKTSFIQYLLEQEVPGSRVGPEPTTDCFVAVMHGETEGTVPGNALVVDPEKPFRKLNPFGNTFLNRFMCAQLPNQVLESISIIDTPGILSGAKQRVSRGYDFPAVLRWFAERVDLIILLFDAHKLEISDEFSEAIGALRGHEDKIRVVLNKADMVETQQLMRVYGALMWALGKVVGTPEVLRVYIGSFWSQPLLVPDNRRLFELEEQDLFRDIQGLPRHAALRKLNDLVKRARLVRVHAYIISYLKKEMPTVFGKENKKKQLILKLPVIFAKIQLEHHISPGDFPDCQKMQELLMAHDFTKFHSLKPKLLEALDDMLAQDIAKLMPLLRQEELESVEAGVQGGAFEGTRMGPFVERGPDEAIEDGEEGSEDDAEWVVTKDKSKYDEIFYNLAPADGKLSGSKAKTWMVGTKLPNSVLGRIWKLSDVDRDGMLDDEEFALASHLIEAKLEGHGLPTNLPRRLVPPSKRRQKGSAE
Description: ATPase assay was performed as mentioned above and at defined time points, reaction aliquots were diluted three times in reaction buffer (50 mM Tris, 150 mM NaCl, pH 7.5) and quickly flash frozen in liquid nitrogen. Samples were applied to an HPLC and nucleotides were separated with reversed phase column (C18 100*4.6 mm) equilibrated with running buffer containing 100 mM potassium phosphate buffer pH 6.5, 10 mM tetrabutylammonium bromide, 7.5% (v/v) acetonitrile. Adenine nucleotides were detected by absorption at 254 nm and quantified by integrating the corresponding nucleotide peaks and determining the ADP/ATP ratios.
Fig 5 Biochemical characterization of the primary hits. A One-hour time course of the MLG-based enzymatic ATPase assay in the presence of 50 μM inhibitor. EHD4^ΔN (blue curve) represents the positive control. B Primary hits were validated at 50 μM inhibitor concentration in an HPLC setup to exclude assay bias. ATPase assays done in A and B were in standard conditions. C Primary hits were tested against EHD2. Only MS8 had no effect on EHD2 ATPase activity. ATPase assay was done at an EHD2 concentration of 5 μM in the presence of 500 μg/ml Folch liposomes and 50 μM ATP in assay buffer at 30°C. D Changes in melting temperature of 5 μM EHD4^ΔN were studied in the presence of 50 μM inhibitor by thermal shift assay. MS1 and MS10 destabilized the protein, as evident by negative ΔTm, whereas MS8 had no effect on the stability of EHD4^ΔN. […] Shown is an IC50 curve plotted with an inhibitor concentration range from 0.125 μM to 50 μM. F MS8 substructure obtained by dissecting the diphenlyether bond. […]
Supplementary file pone.0302704.s004.tif: S4 Fig DNM1L and EHD2 enzymatic assay. […] B Initial velocities of DNM1L GTPase activity at 300 nM DNM1L, and, 500 μg/ml synthetic DOPS, T = 25°C and at different GTP concentrations were determined by a linear fit. C Km was determined by first calculating the amount of hydrolyzed GTP in (B) using the standard curve reported in S2C Fig and then plotting the initial rates of the reactions versus the substrate concentration. […]

[4] = molecular target: T3, DNM1L (Homo sapiens, UniProt O00429); assay: MLG-based stimulated GTPase assay of DNM1L (counter-screen); type: biochemical; conditions: 300 nM DNM1L, 40 μM GTP, 25°C; inhibitor 0.125 μM to 50 μM (IC50 curve) or 10 μM (time course)
T3 construct: human DNM1L isoform 2 (UniProtID: O00429-3, residues 1–710); made in house
Description: Fig 5 Biochemical characterization of the primary hits. A One-hour time course of the MLG-based enzymatic ATPase assay in the presence of 50 μM inhibitor. EHD4^ΔN (blue curve) represents the positive control. B Primary hits were validated at 50 μM inhibitor concentration in an HPLC setup to exclude assay bias. ATPase assays done in A and B were in standard conditions. C Primary hits were tested against EHD2. Only MS8 had no effect on EHD2 ATPase activity. ATPase assay was done at an EHD2 concentration of 5 μM in the presence of 500 μg/ml Folch liposomes and 50 μM ATP in assay buffer at 30°C. D Changes in melting temperature of 5 μM EHD4^ΔN were studied in the presence of 50 μM inhibitor by thermal shift assay. MS1 and MS10 destabilized the protein, as evident by negative ΔTm, whereas MS8 had no effect on the stability of EHD4^ΔN. […] Shown is an IC50 curve plotted with an inhibitor concentration range from 0.125 μM to 50 μM. F MS8 substructure obtained by dissecting the diphenlyether bond. This substructure was used in our chemical search to have the highest diversity of the chemical space and the optimal coverage of chemical vectors to gain a structure-activity relationship.Data points represents the mean of two or more independent experiments and the error bar signifies the range or standard deviation. […] TEXT PRINTED IN THE PICTURE: (D) EHD4^ΔN: Tm = 44.5 °C DOUBTS OF THE COPYIST ABOUT THIS PICTURE: Panel D: 'EHD4^ΔN Tm = 44.5 °C' is the only printed result. It refers to the protein itself (reference melting temperature), not to one of the inhibitors MS1, MS8 or MS10, so it may not count as a result for a substance.
Supplementary file pone.0302704.s004.tif: S4 Fig DNM1L and EHD2 enzymatic assay. A EHD2 ATPase activity by an HPLC-based method. Assay conditions were 5 μM EHD2, 50 μM ATP and 1 mg/ml Folch liposomes at 30°C. […] C Km was determined by first calculating the amount of hydrolyzed GTP in (B) using the standard curve reported in S2C Fig and then plotting the initial rates of the reactions versus the substrate concentration. […]

[5] = compounds picked from the drug library, duplicates, inhibitor 0.125 μM to 50 μM, 200 nM EHD4ΔN, 30 μM ATP, 50 μg/ml DOPS

T3 sequence (O00429 1-710 isoform O00429-3): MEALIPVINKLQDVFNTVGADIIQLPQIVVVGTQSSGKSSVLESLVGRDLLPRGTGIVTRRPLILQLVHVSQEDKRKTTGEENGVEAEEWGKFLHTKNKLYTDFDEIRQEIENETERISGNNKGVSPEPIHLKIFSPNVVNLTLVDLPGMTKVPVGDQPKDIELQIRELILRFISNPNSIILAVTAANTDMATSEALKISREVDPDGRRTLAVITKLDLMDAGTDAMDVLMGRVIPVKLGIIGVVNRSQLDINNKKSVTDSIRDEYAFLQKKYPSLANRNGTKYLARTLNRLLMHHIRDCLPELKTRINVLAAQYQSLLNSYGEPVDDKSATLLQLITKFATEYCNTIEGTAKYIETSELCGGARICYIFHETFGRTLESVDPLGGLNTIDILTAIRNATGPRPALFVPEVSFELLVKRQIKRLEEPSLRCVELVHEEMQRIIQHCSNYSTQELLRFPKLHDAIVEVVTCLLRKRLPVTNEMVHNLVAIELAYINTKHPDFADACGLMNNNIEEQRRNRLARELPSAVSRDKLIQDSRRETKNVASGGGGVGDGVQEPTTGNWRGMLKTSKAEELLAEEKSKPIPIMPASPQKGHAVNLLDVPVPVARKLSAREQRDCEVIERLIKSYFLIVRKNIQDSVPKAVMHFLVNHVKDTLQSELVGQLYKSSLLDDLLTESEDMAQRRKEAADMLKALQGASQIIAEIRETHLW

Compound | IC50 [1, 5] | IC50 ([1]; repurchased compounds) | effect on EHD4ΔN stability (thermal shift) [2] | ΔTm at 50 µM ([2]; Tm of protein alone 44.5°C) | effect on EHD2 enzymatic (ATPase) activity [3] | effect on stimulated GTPase activity of DNM1L [4]
O=C(CCCCCn1sc2ccccc2c1=O)Nc1ccccc1O [MS1, N-(2-hydroxyphenyl)-6-(3-oxo-2,3-dihydro-1,2-benzothiazol-2-yl)hexanamide] | 0.92 µM | 2.4 µM | destabilizing effect | -5 °C | inhibited | did not interfere
Cc1csc(NC(=O)c2cccc(Oc3ccccc3)c2)n1 [MS8, N-(4-methyl-1,3-thiazol-2-yl)-3-phenoxybenzamide] | 3.8 µM | 4.9 µM | no such effect |  | no effect | did not inhibit
Oc1cc2c(cc1C(c1ccc(C(F)(F)F)cc1)N1CCOCC1)OCO2 (stereo not shown) [MS10, 6-(Morpholino(4-(Trifluormethyl)phenyl)methyl)-1,3-Benzodioxol-5-ol] | 2.9 µM | 4.8 µM | diminished EHD4^ΔN stability |  | inhibited | did not interfere
